Results on one molecule are retold here after publication PMC5306082, “Physiologically based kinetic modeling of the bioactivation of myristicin” (Archives of Toxicology, 2016).

Each structure is given as a SMILES string.

Experiment [1] can be described thus: Sulfonation of 1′-hydroxymyristicin, human liver S9. The experiment is classed as in vitro ADME. To be noted: S9 protein yield 143 mg/g liver. As to the method:
The formation of 1′-sulfoxymyristicin was determined using incubations containing male rat liver Sprague–Dawley or pooled gender human liver S9 proteins, PAPS as a cofactor, and GSH, which acts as a scavenger of the reactive carbocation formed due to the unstable nature of the 1′-sulfoxy metabolite in an aqueous environment (van den Berg et al. [2012]; Martati et al. [2011]; Al-Subeihi et al. [2011]). Incubation mixtures containing (final concentrations) 10 mM of GSH, 0.2 mM of PAPS, and 3 mg/ml of S9 proteins in 0.1 M potassium phosphate (pH 8.2) were pre-incubated for 1 min at 37 °C. After the pre-incubation, 1′-hydroxymyristicin dissolved in DMSO was added in final concentrations ranging between 10 and 6000 μM while keeping the final content of DMSO at 1 % (v/v). The reaction was terminated after 360 min of incubation by adding 25 μl (0.25 times the incubation volume) of ice-cold ACN. The formation of the GSH conjugate of 1′-sulfoxymyristicin was linear with time and S9 protein concentrations under the experimental conditions used. Blank incubations were performed in the absence of PAPS. Incubations were performed in triplicate. All samples were centrifuged for 5 min at 16,000×g, and the supernatant was stored at −20 °C until ultra-performance liquid chromatography (UPLC) analysis.
Quantification of 1′-sulfoxymyristicin was done using UPLC analysis as described for the estimation of 1′-sulfoxysafrole (Martati et al. [2011]). […] The gradient for analysis of the metabolite consisted of a mixture of ACN and ultrapure water containing 0.1 % (v/v) TFA. The flow rate was 0.6 ml/min, starting at 0 % ACN and increasing the percentage of ACN to 20 % over 0.2 min, followed by an increase to 30 % ACN over 4.3 min, then increasing to 100 % over 0.3 min, and keeping it at 100 % for 0.2 min, and finally decreasing to 0 % over 0.2 min and keeping it at 0 % for 0.8 min. Separation and purification of the GSH adduct of 1′-sulfoxymyristicin was performed by collecting the peak of the metabolite from the UPLC column. […]

Experiment [2] can be described thus: Microsomal conversion of myristicin, male rat liver microsomes. The experiment is classed as in vitro ADME. As to the method:
First, it was determined which organs are involved in the biotransformation of myristicin in rat and human. For this purpose, liver, kidney, lung, and small intestine microsomes from male Sprague–Dawley rat and pooled gender human were used. Incubations were performed by adding myristicin to incubation mixtures containing 1 mg/mL of the microsomal protein preparations and 3 mM NADPH in 0.2 M Tris–HCl (pH 7.4). After 1 min of pre-incubation at 37 °C, myristicin (final concentration, 1000 μM) was added from a 100 times concentrated stock solution in DMSO so that the final DMSO content was 1 % (v/v). Incubations were carried out for 30 min after which the reactions were terminated by adding 25 µl (0.25 times the incubation volume) of ice-cold ACN. Samples were centrifuged for 5 min at 13,000×g, and the supernatant was stored at −20 °C until UPLC analysis. As metabolism of myristicin was observed only in incubations with liver microsomes for male rats and pooled gender human, the determination of kinetic constants for the formation of microsomal metabolites was performed only for the liver fractions. Incubations to determine kinetic constants were performed following the conditions described above using final concentrations of myristicin from 25 to 1000 μM for rat and human liver. In all incubations, the final concentration of DMSO, in which myristicin was dissolved, was kept at 1 % (v/v). The formation of different microsomal metabolites was linear with time and microsomal protein concentration under the conditions described. Blank incubations were performed in the absence of the cofactor NADPH. All incubations were performed in triplicate.
Secondary metabolism of the relevant 1′-hydroxy metabolite of myristicin was taken into account by determining the kinetic constants for its conversion in (a) glucuronidation, (b) sulfation, and (c) oxidation, again under conditions that allowed adequate definition of kinetic constants and with <10 % substrate conversion. Incubation samples were subjected to UPLC analysis that was performed as described previously (Punt et al. [2008]). Identification was achieved by comparing the UV spectra of the formed metabolites to the spectra of the synthesized 1′-hydroxymyristicin and 1′-oxomyristicin reference standards. Quantification of all formed metabolites was done by comparing the peak areas to those of calibration curves of the corresponding reference compounds, determined using UPLC with photodiode array detection (UPLC-PDA). The UPLC system was composed of a Waters (Waters, Milford, MA) Acquity solvent manager, sample manager, and photodiode array detector, equipped with Water Acquity UPLC BEH C18 column.
The gradient for analysis of microsomal metabolites was performed with 100 % ACN and ultrapure water containing 0.1 % (v/v) TFA. The flow rate was 0.6 ml/min. The gradient started at 10 % ACN, increased to 50 % ACN over 4 min, increased to 80 % over 0.5 min, followed by decrease to 10 % ACN over 0.5 min, and finally kept at 10 % for 1 min.

`C=CC(O)c1cc(OC)c2c(c1)OCO2` (centres unmarked) [1′-Hydroxymyristicin, 1′-hydroxymyristicin]: the “k Scaled” value in experiment [1] came to 0.14 ml/hr/g tissue. For the same molecule, the Vmax in experiment [2] (formation of the metabolite from myristicin, NADPH, mean of three ± SD) is on record as 0.86 ± 0.18 nmol min^−1 (mg microsomal or S9 protein)^−1. Also, the “In vitro catalytic efficiency” value in experiment [2] (formation of the metabolite from myristicin, Vmax/Km × 1000) is 8.431 μl min^−1 (mg microsomal or S9 protein)^−1. Moreover, in experiment [2] (from myristicin, microsomal protein yield 35 mg/g liver), the “Scaled Vmax, in vivo” value came out at 1.806 μmol/h/g tissue. The “In vivo catalytic efficiency” value in experiment [2] (from myristicin, scaled Vmax/Km) was 0.0177 ml/h/g tissue. Further, in experiment [2] (rat vs human), the “Km for formation from myristicin, fold lower in rat liver than in human liver incubations” value is listed as “twofold lower” and the “Vmax for formation from myristicin, fold higher in rat liver than in human liver incubations” value is recorded as “fivefold higher”. Also, the “catalytic efficiency for formation from myristicin, fold higher in male rat liver than in human liver” value in experiment [2] (scaled catalytic efficiency, rat vs human) was found to be 13 fold.
